From patent publication US8716297B2, “Chemical entities to be used for Wee1 inhibition for the treatment of cancer” (AbbVie Inc., priority 2011, dated 2014) come the findings set out here.

In the assay the target is T1, GST-tagged-Wee1 kinase (Homo sapiens, UniProt P30291).
T1 construct: purchased Carnabio 05-177
T1 sequence (P30291 whole entry): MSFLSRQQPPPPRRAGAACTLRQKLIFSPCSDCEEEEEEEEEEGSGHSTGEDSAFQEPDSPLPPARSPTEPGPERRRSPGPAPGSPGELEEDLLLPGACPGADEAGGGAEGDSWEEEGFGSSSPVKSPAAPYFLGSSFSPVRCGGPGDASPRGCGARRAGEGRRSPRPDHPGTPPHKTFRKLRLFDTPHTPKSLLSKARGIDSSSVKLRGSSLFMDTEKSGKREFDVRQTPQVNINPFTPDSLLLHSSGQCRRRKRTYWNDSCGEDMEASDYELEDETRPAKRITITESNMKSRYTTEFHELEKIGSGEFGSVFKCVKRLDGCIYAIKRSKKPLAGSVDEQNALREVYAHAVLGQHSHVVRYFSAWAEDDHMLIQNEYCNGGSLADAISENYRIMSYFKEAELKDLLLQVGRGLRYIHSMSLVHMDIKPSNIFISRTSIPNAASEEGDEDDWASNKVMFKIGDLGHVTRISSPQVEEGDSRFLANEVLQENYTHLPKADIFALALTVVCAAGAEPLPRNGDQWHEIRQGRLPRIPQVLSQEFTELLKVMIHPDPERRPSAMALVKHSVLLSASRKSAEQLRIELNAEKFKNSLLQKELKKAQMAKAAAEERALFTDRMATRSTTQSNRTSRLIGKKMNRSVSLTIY
Kind of assay: Wee1 time-resolved fluorescence equilibrium binding assay (displacement of Oregon Green-labeled ATP-competitive probe). To be noted: TR-FRET probe displacement; 2 nM GST-Wee1, 300 nM probe, 1 hour incubation; read-out: Wee-1 binding (Ki nM). On the procedure: Wee1 kinase was assayed using a time-resolved fluorescence equilibrium binding assay monitoring displacement of a rapidly reversible Oregon Green-labeled ATP-competitive kinase probe (N-(2-(2-(2-(4-(4-(5-chloro-4-(2-(1-hydroxycyclobutyl)thiazol-5-yl)-1H-pyrrolo[2,3-b]pyridin-2-yl)phenyl)piperazin-1-yl)ethoxy)ethoxy)ethyl)-2′,7′-difluoro-3′,6′-dihydroxy-3-oxo-3H-spiro[isobenzofuran-1,9′-xanthene]-5-carboxamide) by competitive Wee1 inhibitors.
In the case of `C=CCN1c2ncccc2-c2nc(Nc3ccc(N4CCN(C)CC4)c(C)c3)ncc2S1(=O)=O` [Example 50, 6-allyl-N-[3-methyl-4-(4-methylpiperazin-1-yl)phenyl]-6H-pyrido[2,3-c]pyrimido[4,5-e][1,2]thiazin-2-amine 5,5-dioxide], the Ki was determined as 5 nM. Turning to `C=CCN1c2ncccc2-c2nc(Nc3ccc(N4CCN(C)CC4)cc3)ncc2S1(=O)=O` [Example 40, 6-allyl-N-[4-(4-methylpiperazin-1-yl)phenyl]-6H-pyrido[2,3-c]pyrimido[4,5-e][1,2]thiazin-2-amine 5,5-dioxide], the Ki came to 5 nM. As for `C=CCN1c2ccccc2-c2nc(Nc3ccc(N4CCC(C)CC4)cc3)ncc2S1(=O)=O` [Example 9, 6-allyl-N-[4-(4-methylpiperidin-1-yl)phenyl]-6H-pyrimido[5,4-c][2,1]benzothiazin-2-amine 5,5-dioxide], the Ki was 50 nM.

As to `COC(=O)c1ccc2c(c1)N(Cc1c(Cl)cccc1Cl)S(=O)(=O)c1cnc(Nc3ccc(N4CCN(C)CC4)cc3)nc1-2` [Example 95, methyl 6-(2,6-dichlorobenzyl)-2-{[4-(4-methylpiperazin-1-yl)phenyl]amino}-6H-pyrimido[5,4-c][2,1]benzothiazine-8-carboxylate 5,5-dioxide], the Ki came out at 591 nM. Take `C=CCN1c2ccccc2-c2nc(Nc3ccc(C4CCN(C)CC4)cc3)ncc2S1(=O)=O` [Example 19, 6-allyl-N-[4-(1-methylpiperidin-4-yl)phenyl]-6H-pyrimido[5,4-c][2,1]benzothiazin-2-amine 5,5-dioxide]: the Ki came to 1.2 nM. Next, `CN1CCN(c2ccc(Nc3ncc4c(n3)-c3ccccc3N(C)S4(=O)=O)cc2)CC1` [Example 56, 6-methyl-N-[4-(4-methylpiperazin-1-yl)phenyl]-6H-pyrimido[5,4-c][2,1]benzothiazin-2-amine 5,5-dioxide]: 9 nM; `C=CCN1c2ncccc2-c2nc(Nc3ccc4c(c3)N(C)CCC4)ncc2S1(=O)=O` [Example 49, 6-allyl-N-(1-methyl-1,2,3,4-tetrahydroquinolin-7-yl)-6H-pyrido[2,3-c]pyrimido[4,5-e][1,2]thiazin-2-amine 5,5-dioxide]: 45 nM; `CCCN1c2cc(C(=O)NCCOC)ccc2-c2nc(Nc3ccc(N4CCN(C)CC4)cc3)ncc2S1(=O)=O` [Example 85, N-(2-methoxyethyl)-2-{[4-(4-methylpiperazin-1-yl)phenyl]amino}-6-propyl-6H-pyrimido[5,4-c][2,1]benzothiazine-8-carboxamide 5,5-dioxide]: 5 nM. On to `CCCN1c2cc(-c3cccnc3)ccc2-c2nc(Nc3ccc(N4CCN(C)CC4)cc3)ncc2S1(=O)=O` [Example 69, N-[4-(4-methylpiperazin-1-yl)phenyl]-6-propyl-8-(pyridin-3-yl)-6H-pyrimido[5,4-c][2,1]benzothiazin-2-amine 5,5-dioxide], for which the Ki came to 4 nM.

In the case of `CCCN1c2cc(C(=O)NCc3cccnc3)ccc2-c2nc(Nc3ccc(N4CCN(C)CC4)cc3)ncc2S1(=O)=O` [Example 87, 2-{[4-(4-methylpiperazin-1-yl)phenyl]amino}-6-propyl-N-(pyridin-3-ylmethyl)-6H-pyrimido[5,4-c][2,1]benzothiazine-8-carboxamide 5,5-dioxide], the Ki is 5 nM.

With `CCCN1c2cc(C(C)(C)O)ccc2-c2nc(Nc3ccc(N4CCN(C)CC4)cc3)ncc2S1(=O)=O` [Example 80, 2-(2-{[4-(4-methylpiperazin-1-yl)phenyl]amino}-5,5-dioxido-6-propyl-6H-pyrimido[5,4-c][2,1]benzothiazin-8-yl)propan-2-ol], the Ki amounted to 14 nM. Next, `C=CCN1c2ncccc2-c2nc(Nc3ccc(N4CCN(C)CC4)c(Cl)c3)ncc2S1(=O)=O` [Example 41, 6-allyl-N-[3-chloro-4-(4-methylpiperazin-1-yl)phenyl]-6H-pyrido[2,3-c]pyrimido[4,5-e][1,2]thiazin-2-amine 5,5-dioxide]: 2370 nM; `C=CCN1c2ccccc2-c2nc(Nc3ccc4c(c3)N(C)CCC4)ncc2S1(=O)=O` [Example 8, 6-allyl-N-(1-methyl-1,2,3,4-tetrahydroquinolin-7-yl)-6H-pyrimido[5,4-c][2,1]benzothiazin-2-amine 5,5-dioxide]: 106 nM. Then `C=CCN1c2ccccc2-c2nc(Nc3ccccc3)ncc2S1(=O)=O` [Example 24, 6-allyl-N-phenyl-6H-pyrimido[5,4-c][2,1]benzothiazin-2-amine 5,5-dioxide], with 220 nM; and `CCCN1c2cc(C(=O)OC)ccc2-c2nc(Nc3ccc(N4CCN(C)CC4)cc3)ncc2S1(=O)=O` [Example 78, methyl 2-{[4-(4-methylpiperazin-1-yl)phenyl]amino}-6-propyl-6H-pyrimido[5,4-c][2,1]benzothiazine-8-carboxylate 5,5-dioxide], with 6 nM; and `C=CCN1c2ncccc2-c2nc(Nc3ccc(N4CCN5CCCC5C4)cc3)ncc2S1(=O)=O` (stereo not shown) [Example 48, 6-allyl-N-[4-(hexahydropyrrolo[1,2-a]pyrazin-2(1H)-yl)phenyl]-6H-pyrido[2,3-c]pyrimido[4,5-e][1,2]thiazin-2-amine 5,5-dioxide], with 2 nM. Regarding `C=CCN1c2ccccc2-c2nc(Nc3ccc(N4CCOCC4)cc3)ncc2S1(=O)=O` [Example 16, 6-allyl-N-[4-(morpholin-4-yl)phenyl]-6H-pyrimido[5,4-c][2,1]benzothiazin-2-amine 5,5-dioxide], the Ki came out at 7 nM. Then `C=CCN1c2ccccc2-c2nc(Nc3ccc(N4CCN(C(C)=O)CC4)cc3)ncc2S1(=O)=O` [Example 10, 1-(4-{4-[(6-allyl-5,5-dioxido-6H-pyrimido[5,4-c][2,1]benzothiazin-2-yl)amino]phenyl}piperazin-1-yl)ethanone], with 5 nM; and `C=CCN1c2ccccc2-c2nc(Nc3ccc4c(c3)CCCC4)ncc2S1(=O)=O` [Example 17, 6-allyl-N-(5,6,7,8-tetrahydronaphthalen-2-yl)-6H-pyrimido[5,4-c][2,1]benzothiazin-2-amine 5,5-dioxide], with 2040 nM. `C=CCN1c2c(C(=O)NCCO)cccc2-c2nc(Nc3ccc(N4CCN(C)CC4)cc3)ncc2S1(=O)=O` [Example 62, 6-allyl-N-(2-hydroxyethyl)-2-{[4-(4-methylpiperazin-1-yl)phenyl]amino}-6H-pyrimido[5,4-c][2,1]benzothiazine-7-carboxamide 5,5-dioxide]: the Ki stood at 37 nM. Next, `C=CCN1c2ncccc2-c2nc(Nc3ccc(N4CCN(C)CC4)cc3C)ncc2S1(=O)=O` [Example 44, 6-allyl-N-[2-methyl-4-(4-methylpiperazin-1-yl)phenyl]-6H-pyrido[2,3-c]pyrimido[4,5-e][1,2]thiazin-2-amine 5,5-dioxide]: 487 nM; `C=CCN1c2ccccc2-c2nc(Nc3ccc4c(c3)NCCC4)ncc2S1(=O)=O` [Example 30, 6-allyl-N-(1,2,3,4-tetrahydroquinolin-7-yl)-6H-pyrimido[5,4-c][2,1]benzothiazin-2-amine 5,5-dioxide]: 21 nM. For the compound `C=CCN1c2ccccc2-c2nc(Nc3ccc4c(c3)CN(C)CC4(C)C)ncc2S1(=O)=O` [Example 22, 6-allyl-N-(2,4,4-trimethyl-1,2,3,4-tetrahydroisoquinolin-7-yl)-6H-pyrimido[5,4-c][2,1]benzothiazin-2-amine 5,5-dioxide], the Ki came out at 1.7 nM. As for `C=CCN1c2ccccc2-c2nc(Nc3ccc(N4CCCCC4)cc3)ncc2S1(=O)=O` [Example 11, 6-allyl-N-[4-(piperidin-1-yl)phenyl]-6H-pyrimido[5,4-c][2,1]benzothiazin-2-amine 5,5-dioxide], the Ki amounted to 31 nM. As to `CCCN1c2cc(-c3ccccc3)ccc2-c2nc(Nc3ccc(N4CCN(C)CC4)cc3)ncc2S1(=O)=O` [Example 68, N-[4-(4-methylpiperazin-1-yl)phenyl]-8-phenyl-6-propyl-6H-pyrimido[5,4-c][2,1]benzothiazin-2-amine 5,5-dioxide], the Ki amounted to 92 nM. In the case of `C=CCN1c2ccccc2-c2nc(Nc3ccc(OCCN(CC)CC)cc3)ncc2S1(=O)=O` [Example 3, 6-allyl-N-{4-[2-(diethylamino)ethoxy]phenyl}-6H-pyrimido[5,4-c][2,1]benzothiazin-2-amine 5,5-dioxide], the Ki turned out to be 4.8 nM. As for `C=CCN1c2ncccc2-c2nc(Nc3ccc4c(c3)CCNC4)ncc2S1(=O)=O` [Example 46, 6-allyl-N-(1,2,3,4-tetrahydroisoquinolin-6-yl)-6H-pyrido[2,3-c]pyrimido[4,5-e][1,2]thiazin-2-amine 5,5-dioxide], the Ki came out at 2 nM.

Take `C=CCN1c2ncccc2-c2nc(Nc3ccc4c(c3)N(C(C)=O)CC4)ncc2S1(=O)=O` [Example 35, 1-{6-[(6-allyl-5,5-dioxido-6H-pyrido[2,3-c]pyrimido[4,5-e][1,2]thiazin-2-yl)amino]-2,3-dihydro-1H-indol-1-yl}ethanone]: the Ki amounted to 48 nM. Then `C=CCN1c2ncccc2-c2nc(Nc3ccc(N4CCOCC4)cc3)ncc2S1(=O)=O` [Example 52, 6-allyl-N-[4-(morpholin-4-yl)phenyl]-6H-pyrido[2,3-c]pyrimido[4,5-e][1,2]thiazin-2-amine 5,5-dioxide], with 12 nM; and `COC(=O)c1ccc2c(c1)N(c1ccccc1)S(=O)(=O)c1cnc(Nc3ccc(N4CCN(C)CC4)cc3)nc1-2` [Example 88, methyl 2-{[4-(4-methylpiperazin-1-yl)phenyl]amino}-6-phenyl-6H-pyrimido[5,4-c][2,1]benzothiazine-8-carboxylate 5,5-dioxide], with 2 nM; and `CCCN1c2cc(C(=O)N(C)C)ccc2-c2nc(Nc3ccc(N4CCN(C)CC4)cc3)ncc2S1(=O)=O` [Example 83, N,N-dimethyl-2-{[4-(4-methylpiperazin-1-yl)phenyl]amino}-6-propyl-6H-pyrimido[5,4-c][2,1]benzothiazine-8-carboxamide 5,5-dioxide], with 23 nM.
